Data as given in patent US10413545B2, “Imidazolin-5-one derivative useful as FASN inhibitors for the treatment of cancer” (Janssen Pharmaceutica NV, priority 2013, dated 2019).
Read-outs that look alike come from different tables or passages of the source.

Assays:
Assay type in all cases: cell-based
A2780 ovarian cells = experiment: A2780 Ovarian Cell Proliferation Assay in Lipid Reduced Medium, with and without Palmitate (MTT); conditions: Homo sapiens, 10% lipid-reduced serum, 96 h
Protocol: The biological assays described below correspond to comparative assays for ovarian cell proliferation.
2500 cells were seeded in a 96-well clear well plate in 200 μL RPM11640 with 10% Fetal Calf Serum (Hyclone), and incubated at 37° C., 5% CO2, Blanks were wells without cells. The next day the culture medium was aspirated and replaced by 160 μL culture medium with 10% Lipid-Reduced Serum (LRS, Hyclone). […] After 96 h incubation, an MTT assay was performed.
2500 cells were seeded in a 96-well clear well plate in 200 μL RPM11640 with 10% Fetal Calf Serum (Hyclone), and incubated at 37° C., 5% CO2. Blanks were wells without cells. The next day the culture medium was aspirated and replaced by 160 μL culture medium with 10% Lipid-Reduced Serum (LRS, Hyclone). 20 μL test compound (at concentrations of 30 μM, 10 μM, 3 μM, 1 μM, 0.30 μM, 0.10 μM, 0.03 μM and 0.01 μM)/DMSO dilution followed by 20 μL ethanol-BSA solution were added to a final concentrations of 0.2% DMSO, 0.2% fatty-acid-free BSA, 0.25% ethanol. After 96 h incubation an MTT assay was performed.
Raw data generated by the instrument were normalized to % Controlmin values, which were calculated as: % Controlmin=100*(x−mLC)/(mHC−mLC)
where mLC and mHC were the means of the low control wells and high control wells on the plate, after manual exclusion of outliers. A plot of Controlmin versus test compound concentration was fitted to a 4-parameter logistic curve using a non-linear least squares regression method.

[1] = tested on: LNCaP_Vancouver prostate cells; experiment: In Vitro LNCaP Vancouver Prostate Cell Proliferation Assay in Lipid Reduced Medium; conditions: 10% lipid reduced serum, 96 h, ATP-glow luminescence; for IC50: Prostate cell, read-out: pIC50 LNCaP_Vancouver prostate cell (converted)
Protocol: LNCaP_Vancouver prostate cells were obtained from the Vancouver Prostate Cancer Centre.
(§1) The next day 10 μl of test compound/DMSO diluted in medium was added (3E-5M, 1E-5M, 3E-6M,1E-6M, 3E-7M, 1E-7M, 3E-8M, 1E-8M final concentration). Compounds were tested in duplicate. After 96 h incubation at 37° C., 5% CO2 25 μl ATP-glow mix was added. The plate was incubated for 30 min at 37° C. and luminescence was measured with the Envision.
(§2) Analysis: Determination of pIC50 Values
(§3) pIC50 values were calculated as follows. Raw data generated by the instruments were normalized to % Controlmin values, which were calculated as: % Controlmin=100*(x−mLC)/(mHC−mLC),
(§4) where mLC and mHC are the means of the low control wells and high control wells on the plate, after manual exclusion of outliers. The relation between the % Controlmin values and concentration was fitted to a 4-parameter logistic curve using a non-linear least squares regression method to determine the pIC50 value. Outlying data points were excluded manually to get a correct fit. The pIC50 corresponds to −log 10(IC50), if the IC50 is expressed in molar units (http://www.ncbi.nlm.nih.qovibooks/NBK91994). The IC50 parameter was always determined by non-linear regression, but one or more of the other parameters may have been held fixed on a relevant input value, such as 0 for the bottom values.

[2] = tested on: PC-3M-Luc-C6 prostate cells; experiment: In Vitro PC-3M-Luc-C6 Prostate Cell Proliferation Assay in Lipid Reduced Medium; conditions: 10% lipid reduced serum, 96 h, ATP-glow luminescence; for IC50: Prostate cell, read-out: pIC50 PC-3M-Luc-C6 prostate cell (converted)
Protocol: PC-3M-Luc-C6 prostate cells were obtained from Xenogen Corporation. Cells were maintained in MEM supplemented with 10% Fetal Calf Serum (FCS, Hyclone), 2 mM glutamine, 1 mM sodium pyruvate, 1% BME vitamins (available from for example, Sigma Aldrich), 0.1 mM non Essential Amino Acid and 50 μg/ml Gentamicin. The cells were passaged twice a week.
as §1, with “μl” for “μl of”
as §2, §3, §4

[3] = 25 μM palmitate added (control), read-out: pIC50 With Palmitate (converted)
[4] = no palmitate, read-out: pIC50 Without Palmitate (converted)

| IC50 (A2780 ovarian cells; [3]) [nM] | IC50 (A2780 ovarian cells; [4]) [nM] | IC50 [1] [nM] | pIC50 LNCaP_Vancouver prostate cell [1] | pIC50 PC-3M-Luc-C6 prostate cell [2] | IC50 [2] [nM] | Compound |
| --- | --- | --- | --- | --- | --- | --- |
| > 10000 | 245 | 2040 | – | – | – | Cn1cc(-c2ccc(-c3ccc(C4=NC(C)(C)C(=O)N4CC4CN(C(=O)C5CC5)C4)c(F)c3)cc2)cn1 [Compound 33, 1-((1-(cyclopropanecarbonyl)azetidin-3-yl)methyl)-2-(3-fluoro-4′-(1-methyl-1H-pyrazol-4-yl)-[1,1′-biphenyl]-4-yl)-4,4-dimethyl-1H-imidazol-5(4H)-one] |
| > 10000 | 537 | 3980 | – | – | – | CC1(C)N=C(c2ccc(-c3cnc4ccccc4c3)cc2F)N(C[C@@H]2CCN(C(=O)C3CC3)C2)C1=O [Compound 48, (R)-1-((1-(cyclopropanecarbonyl)pyrrolidin-3-yl)methyl)-2-(2-fluoro-4-(quinolin-3-yl)phenyl)-4,4-dimethyl-1H-imidazol-5(4H)-one] |
| – | – | 724 | – | – | 132 | Cn1ncc2cc(-c3ccc(C4=NC(C)(C)C(=O)N4C[C@@H]4CCN(C(=O)C5CC5)C4)c(F)c3)ccc21 [Compound 53, (R)-1-((1-(cyclopropanecarbonyl)pyrrolidin-3-yl)methyl)-2-(2-fluoro-4-(1-methyl-1H-indazol-5-yl)phenyl)-4,4-dimethyl-1H-imidazol-5(4H)-one] |
| – | – | 339 | – | – | 63.1 | CC1(C)N=C(c2ccc(-c3ccc4cnccc4c3)cc2F)N(CC2CN(C(=O)C3CC3)C2)C1=O [Compound 56, 1-((1-(cyclopropanecarbonyl)azetidin-3-yl)methyl)-2-(2-fluoro-4-(isoquinolin-6-yl)phenyl)-4,4-dimethyl-1H-imidazol-5(4H)-one] |
| > 10000 | 45.7 | – | – | – | 17 | Cc1cc(-c2ccc3c(cnn3C)c2)ccc1C1=NC(C)(C)C(=O)N1C[C@@H]1CCN(C(=O)C2(C)CC2)C1 [Compound 80, (R)-4,4-dimethyl-2-(2-methyl-4-(1-methyl-1H-indazol-5-yl)phenyl)-1-((1-(1-methylcyclopropanecarbonyl)pyrrolidin-3-yl)methyl)-1H-imidazol-5(4H)-one] |
| > 10000 | 229 | – | – | – | 661 | Cn1cc(-c2ccc(-c3ccc(C4=NC(C)(C)C(=O)N4CC4CN(C(=O)C5(O)CC5)C4)c(F)c3)cc2)cn1 [Compound 81, 2-(3-fluoro-4′-(1-methyl-1H-pyrazol-4-yl)-[1,1′-biphenyl]-4-yl)-1-((1-(1-hydroxycyclopropanecarbonyl)azetidin-3-yl)methyl)-4,4-dimethyl-1H-imidazol-5(4H)-one] |
| 4370 | 14.5 | – | – | – | 64.6 | Cc1cc(-c2ccc3cc(F)ccc3c2)ccc1C1=NC(C)(C)C(=O)N1CC1CN(C(=O)C2(C)CC2)C1 [Compound 82] |
| > 10000 | 25.7 | – | – | – | 42.7 | Cc1cc(-c2ccc3c(c2)ncn3C)ccc1C1=NC(C)(C)C(=O)N1CC1CN(C(=O)C2(C)CC2)C1 [Compound 83, 4,4-dimethyl-2-(2-methyl-4-(1-methyl-1H-benzo[d]imidazol-5-yl)phenyl)-1-((1-(1-methylcyclopropanecarbonyl)azetidin-3-yl)methyl)-1H-imidazol-5(4H)-one] |
| 4370 | 3.31 | – | – | – | 7.76 | Cc1cc(-c2ccc(-c3cnn(C)c3)cc2)ccc1C1=NC(C)(C)C(=O)N1C[C@@H]1CCN(C(=O)C2(C)CC2)C1 [Compound 84] |
| > 10000 | 3.89 | – | – | – | ~10.7 | Cc1cc(-c2ccc3c(c2)ncn3C)ccc1C1=NC(C)(C)C(=O)N1C[C@@H]1CCN(C(=O)C2(C)CC2)C1 [Compound 85, (R)-4,4-dimethyl-2-(2-methyl-4-(1-methyl-1H-benzo[d]imidazol-5-yl)phenyl)-1-((1-(1-methylcyclopropanecarbonyl)pyrrolidin-3-yl)methyl)-1H-imidazol-5(4H)-one] |
| ~7760 | 3.98 | – | – | – | 6.17 | Cc1cc(-c2ccc3cc(F)ccc3c2)ccc1C1=NC(C)(C)C(=O)N1C[C@@H]1CCN(C(=O)C2(C)CC2)C1 [Compound 86, (R)-2-(4-(6-fluoronaphthalen-2-yl)-2-methylphenyl)-4,4-dimethyl-1-((1-(1-methylcyclopropanecarbonyl)pyrrolidin-3-yl)methyl)-1H-imidazol-5(4H)-one] |

The next lines start with the molecule.

| Compound | IC50 (A2780 ovarian cells; [3]) [nM] | IC50 (A2780 ovarian cells; [4]) [nM] | IC50 [1] [nM] | pIC50 LNCaP_Vancouver prostate cell [1] | pIC50 PC-3M-Luc-C6 prostate cell [2] | IC50 [2] [nM] |
| --- | --- | --- | --- | --- | --- | --- |
| CC1(C)N=C(c2ccc(-c3ccc4cccc(F)c4c3)cc2)N(CC2CN(C(=O)C3CC3)C2)C1=O [Compound 40, 1-((1-(cyclopropanecarbonyl)azetidin-3-yl)methyl)-2-(4-(8-fluoronaphthalen-2-yl)phenyl)-4,4-dimethyl-1H-imidazol-5(4H)-one] | 5620 | 468 | 2040 | – | – | – |
| CC1(C)N=C(c2ccc(-c3ccc4cncnc4c3)cc2F)N(CC2CN(C(=O)C3CC3)C2)C1=O [Compound 43, 1-((1-(cyclopropanecarbonyl)azetidin-3-yl)methyl)-2-(2-fluoro-4-(quinazolin-7-yl)phenyl)-4,4-dimethyl-1H-imidazol-5(4H)-one] | – | – | – | 5.63 | 6.06 | – |
| CC1(C)N=C(c2ccc(-c3ccc(-c4ccncc4)cc3)cc2F)N(C[C@@H]2CCN(C(=O)C3CC3)C2)C1=O [Compound 46, (R)-1-((1-(cyclopropanecarbonyl)pyrrolidin-3-yl)methyl)-2-(3-fluoro-4′-(pyridin-4-yl)-[1,1′-biphenyl]-4-yl)-4,4-dimethyl-1H-imidazol-5(4H)-one] | 9550 | 52.5 | 407 | – | – | – |
| CC1(C)N=C(c2ccc(-c3cccc4ncccc34)cc2F)N(C[C@@H]2CCN(C(=O)C3CC3)C2)C1=O [Compound 47, (R)-1-((1-(cyclopropanecarbonyl)pyrrolidin-3-yl)methyl)-2-(2-fluoro-4-(quinolin-5-yl)phenyl)-4,4-dimethyl-1H-imidazol-5(4H)-one] | ~10000 | ~933 | 3550 | – | – | – |
| CC1(C)N=C(c2ccc(-c3ccc4cc(F)ccc4c3)cc2F)N(CC2CN(C(=O)C3CC3)C2)C1=O [Compound 54, 1-((1-(cyclopropanecarbonyl)azetidin-3-yl)methyl)-2-(2-fluoro-4-(6-fluoronaphthalen-2-yl)phenyl)-4,4-dimethyl-1H-imidazol-5(4H)-one] | – | – | 407 | – | – | 129 |
| CC1(C)N=C(c2ccc(-c3ccc4cccc(F)c4c3)cc2F)N(CC2CN(C(=O)C3CC3)C2)C1=O [Compound 55, 1-((1-(cyclopropanecarbonyl)azetidin-3-yl)methyl)-2-(2-fluoro-4-(8-fluoronaphthalen-2-yl)phenyl)-4,4-dimethyl-1H-imidazol-5(4H)-one] | – | – | 120 | – | – | 43.7 |
| CC1(C)N=C(c2ccc(-c3nc4ccccc4[nH]3)cc2F)N(C[C@@H]2CCN(C(=O)C3CC3)C2)C1=O [Compound 61, (R)-2-(4-(1H-benzo[d]imidazol-2-yl)-2-fluorophenyl)-1-((1-(cyclopropanecarbonyl)pyrrolidin-3-yl)methyl)-4,4-dimethyl-1H-imidazol-5(4H)-one] | – | – | 5010 | – | – | – |
| CC1(C)N=C(c2ccc(-c3c[nH]c4ccccc34)cc2F)N(CC2CN(C(=O)C3CC3)C2)C1=O [Compound 62, 1-((1-(cyclopropanecarbonyl)azetidin-3-yl)methyl)-2-(2-fluoro-4-(1H-indol-3-yl)phenyl)-4,4-dimethyl-1H-imidazol-5(4H)-one] | – | – | 776 | – | – | 1200 |
